Assay: mn = molality of the nth substance listed, in mol/kg
Conditions: 350 kPa, Liquid, Extra sensitive DSC

C1COCCOCCOCCOCCOCCO1 [1,4,7,10,13,16-hexaoxacyclooctadecane] + O
Conditions | apparent molar heat capacity [J/K/mol]
278.15 K, m1 = 0.01001 | 748
278.15 K, m1 = 0.02001 | 740.4
278.15 K, m1 = 0.03002 | 741.5
278.15 K, m1 = 0.0401 | 742.3
278.15 K, m1 = 0.04995 | 746.2
278.15 K, m1 = 0.06015 | 746.9
278.15 K, m1 = 0.08002 | 744.3
278.15 K, m1 = 0.1224 | 740.8
278.15 K, m1 = 0.1472 | 738.5
278.15 K, m1 = 0.1935 | 734.51
278.15 K, m1 = 0.2925 | 725.83
283.15 K, m1 = 0.01001 | 768
283.15 K, m1 = 0.02001 | 764.2
283.15 K, m1 = 0.03002 | 764.8
283.15 K, m1 = 0.0401 | 765.6
283.15 K, m1 = 0.04995 | 769.1
283.15 K, m1 = 0.06015 | 769.3
283.15 K, m1 = 0.08002 | 767.2
283.15 K, m1 = 0.1224 | 764.3
283.15 K, m1 = 0.1472 | 762.46
283.15 K, m1 = 0.1935 | 759.11
283.15 K, m1 = 0.2925 | 751.64
288.15 K, m1 = 0.01001 | 788
288.15 K, m1 = 0.02001 | 782.4
288.15 K, m1 = 0.03002 | 783.2
288.15 K, m1 = 0.0401 | 785.4
288.15 K, m1 = 0.04995 | 788.8
288.15 K, m1 = 0.06015 | 788.7
288.15 K, m1 = 0.08002 | 786.6
288.15 K, m1 = 0.1224 | 784.29
288.15 K, m1 = 0.1472 | 782.67
288.15 K, m1 = 0.1935 | 779.7
288.15 K, m1 = 0.2925 | 773.51
293.15 K, m1 = 0.01001 | 805.9
293.15 K, m1 = 0.02001 | 800.2
293.15 K, m1 = 0.03002 | 800.8
293.15 K, m1 = 0.0401 | 803.3
293.15 K, m1 = 0.04995 | 806.1
293.15 K, m1 = 0.06015 | 806
293.15 K, m1 = 0.08002 | 804.3
293.15 K, m1 = 0.1224 | 802.22
293.15 K, m1 = 0.1472 | 800.93
293.15 K, m1 = 0.1935 | 798.36
293.15 K, m1 = 0.2925 | 793.29
298.15 K, m1 = 0.01001 | 820.2
298.15 K, m1 = 0.02001 | 817
298.15 K, m1 = 0.03002 | 817.3
298.15 K, m1 = 0.0401 | 820
298.15 K, m1 = 0.04995 | 822.2
298.15 K, m1 = 0.06015 | 822.4
298.15 K, m1 = 0.08002 | 820.7
298.15 K, m1 = 0.1224 | 819.28
298.15 K, m1 = 0.1472 | 818.39
298.15 K, m1 = 0.1935 | 816.04
298.15 K, m1 = 0.2925 | 811.91
303.15 K, m1 = 0.01001 | 836.9
303.15 K, m1 = 0.02001 | 832.9
303.15 K, m1 = 0.03002 | 833.1
303.15 K, m1 = 0.0401 | 836.5
303.15 K, m1 = 0.04995 | 838.6
303.15 K, m1 = 0.06015 | 838.4
303.15 K, m1 = 0.08002 | 836.6
303.15 K, m1 = 0.1224 | 835.6
303.15 K, m1 = 0.1472 | 835.12
303.15 K, m1 = 0.1935 | 832.91
303.15 K, m1 = 0.2925 | 829.51
308.15 K, m1 = 0.01001 | 852.1
308.15 K, m1 = 0.02001 | 847.8
308.15 K, m1 = 0.03002 | 848.2
308.15 K, m1 = 0.0401 | 852.3
308.15 K, m1 = 0.04995 | 853.8
308.15 K, m1 = 0.06015 | 853.6
308.15 K, m1 = 0.08002 | 852.2
308.15 K, m1 = 0.1224 | 851.14
308.15 K, m1 = 0.1472 | 850.86
308.15 K, m1 = 0.1935 | 849
308.15 K, m1 = 0.2925 | 846.24
313.15 K, m1 = 0.01001 | 866.4
313.15 K, m1 = 0.02001 | 862
313.15 K, m1 = 0.03002 | 862.5
313.15 K, m1 = 0.0401 | 867.6
313.15 K, m1 = 0.04995 | 868.8
313.15 K, m1 = 0.06015 | 868.4
313.15 K, m1 = 0.08002 | 867.4
313.15 K, m1 = 0.1224 | 866.13
313.15 K, m1 = 0.1472 | 866.03
313.15 K, m1 = 0.1935 | 864.46
313.15 K, m1 = 0.2925 | 862.08
318.15 K, m1 = 0.01001 | 881.2
318.15 K, m1 = 0.02001 | 875.7
318.15 K, m1 = 0.03002 | 875.9
318.15 K, m1 = 0.0401 | 881.8
318.15 K, m1 = 0.04995 | 882.5
318.15 K, m1 = 0.06015 | 882.3
318.15 K, m1 = 0.08002 | 881.7
318.15 K, m1 = 0.1224 | 880.23
318.15 K, m1 = 0.1472 | 880.31
318.15 K, m1 = 0.1935 | 878.85
318.15 K, m1 = 0.2925 | 876.99
323.15 K, m1 = 0.01001 | 893
323.15 K, m1 = 0.02001 | 888.8
323.15 K, m1 = 0.03002 | 888.4
323.15 K, m1 = 0.0401 | 894.9
323.15 K, m1 = 0.04995 | 895.6
323.15 K, m1 = 0.06015 | 895.5
323.15 K, m1 = 0.08002 | 894.7
323.15 K, m1 = 0.1224 | 893.76
323.15 K, m1 = 0.1472 | 893.83
323.15 K, m1 = 0.1935 | 892.3
323.15 K, m1 = 0.2925 | 890.8
328.15 K, m1 = 0.01001 | 904.7
328.15 K, m1 = 0.02001 | 900.1
328.15 K, m1 = 0.03002 | 900.3
328.15 K, m1 = 0.0401 | 907.2
328.15 K, m1 = 0.04995 | 907.7
328.15 K, m1 = 0.06015 | 907.3
328.15 K, m1 = 0.08002 | 906.8
328.15 K, m1 = 0.1224 | 905.99
328.15 K, m1 = 0.1472 | 906.11
328.15 K, m1 = 0.1935 | 904.68
328.15 K, m1 = 0.2925 | 903.37
333.15 K, m1 = 0.01001 | 915.3
333.15 K, m1 = 0.02001 | 910.7
333.15 K, m1 = 0.03002 | 911
333.15 K, m1 = 0.0401 | 918.1
333.15 K, m1 = 0.04995 | 918.5
333.15 K, m1 = 0.06015 | 918
333.15 K, m1 = 0.08002 | 917.5
333.15 K, m1 = 0.1224 | 916.74
333.15 K, m1 = 0.1472 | 917.09
333.15 K, m1 = 0.1935 | 915.79
333.15 K, m1 = 0.2925 | 914.65
